Experiments:
Experiment in all cases: relative viability (nuclei count vs DMSO), 5 days (fraction); higher = more cells survive
201T = test system: 201T
Procedure, shortened: (§1)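 For relative viability, nuclei counts in treated wells were divided by those in vehicle wells. Lung cancer cell lines had been pin-tool dosed in 1536-well plates the day after seeding and cultured for 5 days, then fixed and stained in one step (final 0.05% Triton X-100, 1% formaldehyde, 1 ug/ml Hoechst) and imaged at 4×. Doses were one drug alone or a fixed anchor-drug dose plus five library-drug doses (not always all listed) in √10 steps, and values are duplicate-plate medians.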

A-427 = test system: A-427
Procedure, shortened: as §1

ABC-1 = test system: ABC-1
Procedure, shortened: as §1

BEN = test system: BEN
Procedure, shortened: as §1

CAL-12T = test system: CAL-12T
Procedure, shortened: as §1

H3255 = test system: H3255
Procedure, shortened: as §1

LC-2-ad = test system: LC-2-ad
Procedure, shortened: as §1

LCLC-97TM1 = test system: LCLC-97TM1
Procedure, shortened: as §1

NCI-H1650 = test system: NCI-H1650
Procedure, shortened: as §1

NCI-H1651 = test system: NCI-H1651
Procedure, shortened: as §1

NCI-H1915 = test system: NCI-H1915
Procedure, shortened: as §1

NCI-H2023 = test system: NCI-H2023
Procedure, shortened: as §1

NCI-H2087 = test system: NCI-H2087
Procedure, shortened: as §1

NCI-H441 = test system: NCI-H441
Procedure, shortened: as §1

NCI-H460 = test system: NCI-H460
Procedure, shortened: as §1

NCI-H520 = test system: NCI-H520
Procedure, shortened: as §1

NCI-H596 = test system: NCI-H596
Procedure, shortened: as §1

NCI-H650 = test system: NCI-H650
Procedure, shortened: as §1

NCI-H661 = test system: NCI-H661
Procedure, shortened: as §1

NCI-H727 = test system: NCI-H727
Procedure, shortened: as §1

PC-3 [JPC-3] = test system: PC-3 [JPC-3]
Procedure, shortened: as §1

Q: What does the source list for `CCN(CC)CCCCNc1ncc2cc(-c3cc(OC)cc(OC)c3)c(NC(=O)NC(C)(C)C)nc2n1` + CC(C)C[C@H](NC(=O)[C@H](Cc1ccccc1)NC(=O)c1cnccn1)B(O)O [Bortezomib] (partner 0.002 µM)?
A: relative viability (201T; first compound 0.01 µM): 1.03; relative viability (201T; first compound 0.03162 µM): 1.14; relative viability (201T; first compound 0.1 µM): 1.14; relative viability (201T; first compound 0.3162 µM): 1.15; relative viability (201T; first compound 1 µM): 0.976; relative viability (A-427; first compound 0.01 µM): 1.1; relative viability (A-427; first compound 0.03162 µM): 0.989; relative viability (A-427; first compound 0.1 µM): 1.12; relative viability (A-427; first compound 0.3162 µM): 1.06; relative viability (A-427; first compound 1 µM): 0.913; relative viability (ABC-1; first compound 0.01 µM): 0.325; relative viability (ABC-1; first compound 0.03162 µM): 0.343; relative viability (ABC-1; first compound 0.1 µM): 0.342; relative viability (ABC-1; first compound 0.3162 µM): 0.247; relative viability (ABC-1; first compound 1 µM): 0.327; relative viability (BEN; first compound 0.01 µM): 0.819; relative viability (BEN; first compound 0.03162 µM): 0.528; relative viability (BEN; first compound 0.1 µM): 1.03; relative viability (BEN; first compound 0.3162 µM): 0.766; relative viability (BEN; first compound 1 µM): 0.715; relative viability (CAL-12T; first compound 0.03162 µM): 1.02; relative viability (CAL-12T; first compound 0.1 µM): 1.03; relative viability (CAL-12T; first compound 0.3162 µM): 1.26; relative viability (CAL-12T; first compound 1 µM): 0.769; relative viability (H3255; first compound 0.01 µM): 0.762; relative viability (H3255; first compound 0.03162 µM): 0.773; relative viability (H3255; first compound 0.1 µM): 1.02; relative viability (H3255; first compound 0.3162 µM): 1.21; relative viability (H3255; first compound 1 µM): 0.656; relative viability (LC-2-ad; first compound 0.01 µM): 0.998; relative viability (LC-2-ad; first compound 0.03162 µM): 1.06; relative viability (LC-2-ad; first compound 0.1 µM): 1.33; relative viability (LC-2-ad; first compound 0.3162 µM): 1.05; relative viability (LC-2-ad; first compound 1 µM): 1; relative viability (LCLC-97TM1; first compound 0.01 µM): 0.723; relative viability (LCLC-97TM1; first compound 0.03162 µM): 0.614; relative viability (LCLC-97TM1; first compound 0.1 µM): 0.789; relative viability (LCLC-97TM1; first compound 0.3162 µM): 1.54; relative viability (LCLC-97TM1; first compound 1 µM): 0.305; relative viability (NCI-H1650; first compound 0.01 µM): 0.201; relative viability (NCI-H1650; first compound 0.03162 µM): 0.217; relative viability (NCI-H1650; first compound 0.1 µM): 0.233; relative viability (NCI-H1650; first compound 0.3162 µM): 0.203; relative viability (NCI-H1650; first compound 1 µM): 0.197; relative viability (NCI-H1651; first compound 0.01 µM): 1; relative viability (NCI-H1651; first compound 0.03162 µM): 0.94; relative viability (NCI-H1651; first compound 0.1 µM): 1.06; relative viability (NCI-H1651; first compound 0.3162 µM): 1.03; relative viability (NCI-H1651; first compound 1 µM): 0.902; relative viability (NCI-H1915; first compound 0.01 µM): 1.07; relative viability (NCI-H1915; first compound 0.03162 µM): 1.1; relative viability (NCI-H1915; first compound 0.1 µM): 1.18; relative viability (NCI-H1915; first compound 0.3162 µM): 1.09; relative viability (NCI-H1915; first compound 1 µM): 0.951; relative viability (NCI-H2023; first compound 0.01 µM): 0.925; relative viability (NCI-H2023; first compound 0.03162 µM): 1.08; relative viability (NCI-H2023; first compound 0.1 µM): 1.16; relative viability (NCI-H2023; first compound 0.3162 µM): 1.13; relative viability (NCI-H2023; first compound 1 µM): 0.968; relative viability (NCI-H2087; first compound 0.01 µM): 0.85; relative viability (NCI-H2087; first compound 0.03162 µM): 0.909; relative viability (NCI-H2087; first compound 0.1 µM): 1.08; relative viability (NCI-H2087; first compound 0.3162 µM): 1.04; relative viability (NCI-H2087; first compound 1 µM): 0.689; relative viability (NCI-H441; first compound 0.01 µM): 0.475; relative viability (NCI-H441; first compound 0.03162 µM): 0.45; relative viability (NCI-H441; first compound 0.1 µM): 0.817; relative viability (NCI-H441; first compound 0.3162 µM): 0.489; relative viability (NCI-H441; first compound 1 µM): 0.492; relative viability (NCI-H460; first compound 0.01 µM): 1.3; relative viability (NCI-H460; first compound 0.03162 µM): 1.33; relative viability (NCI-H460; first compound 0.3162 µM): 1.62; relative viability (NCI-H460; first compound 1 µM): 1.04; relative viability (NCI-H520; first compound 0.01 µM): 0.787; relative viability (NCI-H520; first compound 0.03162 µM): 0.442; relative viability (NCI-H520; first compound 0.1 µM): 0.938; relative viability (NCI-H520; first compound 0.3162 µM): 0.461; relative viability (NCI-H520; first compound 1 µM): 0.244; relative viability (NCI-H596; first compound 0.01 µM): 0.976; relative viability (NCI-H596; first compound 0.03162 µM): 1.06; relative viability (NCI-H596; first compound 0.1 µM): 1.03; relative viability (NCI-H596; first compound 0.3162 µM): 1.16; relative viability (NCI-H596; first compound 1 µM): 0.923; relative viability (NCI-H650; first compound 0.01 µM): 0.701; relative viability (NCI-H650; first compound 0.03162 µM): 0.787; relative viability (NCI-H650; first compound 0.1 µM): 1.1; relative viability (NCI-H650; first compound 0.3162 µM): 0.921; relative viability (NCI-H650; first compound 1 µM): 0.678; relative viability (NCI-H661; first compound 0.01 µM): 0.892; relative viability (NCI-H661; first compound 0.03162 µM): 0.811; relative viability (NCI-H661; first compound 0.1 µM): 0.745; relative viability (NCI-H661; first compound 0.3162 µM): 0.922; relative viability (NCI-H661; first compound 1 µM): 0.634; relative viability (NCI-H727; first compound 0.01 µM): 1.39; relative viability (NCI-H727; first compound 0.03162 µM): 0.871; relative viability (NCI-H727; first compound 0.1 µM): 0.809; relative viability (NCI-H727; first compound 0.3162 µM): 1.2; relative viability (NCI-H727; first compound 1 µM): 0.783; relative viability (PC-3 [JPC-3]; first compound 0.01 µM): 0.895; relative viability (PC-3 [JPC-3]; first compound 0.03162 µM): 0.862; relative viability (PC-3 [JPC-3]; first compound 0.1 µM): 0.972; relative viability (PC-3 [JPC-3]; first compound 0.3162 µM): 0.966; relative viability (PC-3 [JPC-3]; first compound 1 µM): 0.939
